In patent US8236556B2, “Method of modulating gene expression using an ecdysone receptor-based inducible gene expression system” (Intrexon Corporation, priority 2001, dated 2012):

Experiments:
GAL4DmEcR-DEF = target: T1, GAL4DmEcR-DEF (Drosophila melanogaster, UniProt P34021); assay type: cell-based; conditions: NIH3T3 cells; for sensitivity of the switch to steroid versus non-steroid ligand: DmEcR/chimeric RXR-based switch (switch 1.20)
T1 construct: The D, E, and F domains from fruit fly Drosophila melanogaster EcR; expressed in transfected cells; host or cells: mouse NIH3T3 cells
T1 sequence (P34021 330-878): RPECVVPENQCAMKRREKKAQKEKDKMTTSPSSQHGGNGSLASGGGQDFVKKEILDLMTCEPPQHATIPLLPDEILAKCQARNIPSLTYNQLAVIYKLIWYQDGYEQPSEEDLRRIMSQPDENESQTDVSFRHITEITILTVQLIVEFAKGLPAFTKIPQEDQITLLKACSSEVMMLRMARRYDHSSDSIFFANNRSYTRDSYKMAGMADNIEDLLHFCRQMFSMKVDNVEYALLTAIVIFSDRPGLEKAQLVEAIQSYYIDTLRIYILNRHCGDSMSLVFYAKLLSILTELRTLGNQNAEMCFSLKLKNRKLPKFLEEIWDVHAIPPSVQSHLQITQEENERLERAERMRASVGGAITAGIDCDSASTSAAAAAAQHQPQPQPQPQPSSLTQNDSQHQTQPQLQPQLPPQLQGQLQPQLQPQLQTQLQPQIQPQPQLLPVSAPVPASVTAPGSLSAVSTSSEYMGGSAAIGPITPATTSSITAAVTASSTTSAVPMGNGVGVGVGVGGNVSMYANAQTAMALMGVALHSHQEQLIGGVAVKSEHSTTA
Method: (§1) Transfections: DNAs corresponding to the various switch constructs outlined in Example 1, specifically switches 1.1 through 1.6 were transfected into mouse NIH3T3 cells (ATCC) and human A549 cells (ATCC) as follows. […] NIH3T3 cells were grown in Dulbecco's modified Eagle medium (DMEM; LifeTechnologies) and A549 cells were grown in F12K nutrient mixture (LifeTechnologies). […] The cells were harvested and reporter activity was assayed. […] Reporter Assays: Cells were harvested 48 hours after adding ligands. […] Twenty μl of lysate were assayed. […] Thus, Applicants have made the surprising discovery that a chimeric RXR ligand binding domain may be used in place of a vertebrate RXR or an invertebrate RXR in an EcR-based inducible gene expression modulation system.
(§2) This Example describes the construction of four EcR-DEF-based gene switches comprising the DEF domains from Choristoneura fumiferana (Lepidoptera), Drosophila melanogaster (Diptera), Tenebrio molitor (Coleoptera), and Amblyomma americanum (Ixodidae) fused to a GAL4 DNA binding domain. In addition, the EF domains of vertebrate RXRs, invertebrate RXRs, or invertebrate USPs from Choristoneura fumiferana USP, Drosophila melanogaster USP, Locusta migratoria USP (Orthoptera), Mus musculus RXRα (Vertebrata), a chimera between MmRXRα and LmUSP (Chimera; of switch 1.13), Amblyomma americanum RXR homolog 1 (Ixodidae), Amblyomma americanum RXR homolog 2 (Ixodidae) were fused to a VP16 activation domain. […] The cells were harvested, lysed and luciferase reporter activity was measured in the cell lysates. Total fly luciferase relative light units are presented. […] The analysis was performed in triplicate and mean luciferase counts [total relative light units (RLU)] were determined as described above.

[1] = test system: AmaEcR/chimeric RXR-based switch (switch 1.22); assay: Transactivation of pFRLuc in NIH3T3 cells, AmaEcR with chimeric RXR-EF (FIG. 8); assay type: cell-based, Amblyomma americanum; conditions: switch 1.22, NIH3T3 cells
Method: as §1
(§3) This Example describes the construction of four EcR-DEF-based gene switches comprising the DEF domains from Choristoneura fumiferana (Lepidoptera), Drosophila melanogaster (Diptera), Tenebrio molitor (Coleoptera), and Amblyomma americanum (Ixodidae) fused to a GAL4 DNA binding domain. […] The cells were harvested, lysed and luciferase reporter activity was measured in the cell lysates. […] The analysis was performed in triplicate and mean luciferase counts [total relative light units (RLU)] were determined as described above.

GAL4CfEcR-DEF [2] = assay: HsRXRβ/LmUSP chimeric RXR LBDs with GAL4CfEcR-DEF and pFRLuc in NIH3T3 cells (FIGS. 9 and 10); assay type: cell-based, Choristoneura fumiferana; conditions: CfEcR in combination with chimera 11, FIG. 10
Source text: This Example describes Applicants' further analysis of gene expression cassettes encoding various chimeric RXR polypeptides comprising a mouse RXRα isoform polypeptide fragment or a human RXRβ isoform polypeptide fragment and an LmUSP polypeptide fragment in mouse NIH3T3 cells.
Three individual clones of each chimeric RXR LBD of Table 1 were transfected into mouse NIH3T3 cells along with either GAL4CfEcR-DEF (switches 1.25-1.29 of Example 1; FIGS. 9 and 10) or GAL4DmEcR-DEF (switches 1.30-1.34 of Example 1; FIG. 11) and the reporter plasmid pFRLuc as described above. The transfected cells were cultured in the presence of either a) 0, 0.2, 1, or 10 μM non-steroidal ligand (FIG. 9), or b) 0, 0.2, 1, or 10 μM steroid ligand PonA or 0, 0.4, 0.2, 1, or 10 μM non-steroid ligand (FIGS. 10 and 11) for 48 hours. The reporter gene activity was measured and total RLU are shown. The number on top of each bar is the maximum fold induction for that treatment and is the mean of three replicates.

[3] = test system: TmEcR/chimeric RXR-based switch (switch 1.21); assay: Transactivation of pFRLuc in NIH3T3 cells, TmEcR with chimeric RXR-EF (FIG. 8); assay type: cell-based, Tenebrio molitor; conditions: switch 1.21, NIH3T3 cells
Method: as §1, §3

GAL4CfEcR-DEF [4] = assay: Transactivation of pFRLuc in NIH3T3 cells, VP16 RXR/USP constructs in partnership with GAL4CfEcR-DEF (FIG. 6); assay type: cell-based, Choristoneura fumiferana; conditions: for sensitivity of the switch to steroid versus non-steroid ligand: CfEcR/chimeric RXR-based switch (switch 1.13)
Method: as §1, §2

[5] = test system: GAL4CfEcR-DEF/VP16HsRXRβ-(1-8)-LmUSP-(9-12)-EF (βchimera 9; switch 1.27) gene switch; assay: Effect of 9-cis-retinoic acid as second ligand on transactivation of switch 1.27 in NIH3T3 cells (FIG. 12); assay type: cell-based, Choristoneura fumiferana; conditions: 0.04 μM non-steroid ligand, absence of 9-cis-retinoic acid
Method: In particular, Applicants have determined the effect of 9-cis-retinoic acid on the transactivation potential of the GAL4CfEcR-DEF/VP16HsRXRβ-(1-8)-LmUSP-(9-12)-EF (βchimera 9; switch 1.27) gene switch along with pFRLuc in NIH 3T3 cells in the presence of non-steroid (GSE) for 48 hours.
Briefly, GAL4CfEcR-DEF, pFRLuc and VP16HsRXRβ-(1-8)-LmUSP-(9-12)-EF (chimera #9) were transfected into NIH3T3 cells and the transfected cells were treated with 0, 0.04, 0.2, 1, 5 and 25 μM non-steroidal ligand (GSE) and 0, 1, 5 and 25 μM 9-cis-retinoic acid (Sigma Chemical Company). The reporter activity was measured at 48 hours after adding ligands.

Row | Molecule | sensitivity of the switch to steroid versus non-steroid ligand (GAL4DmEcR-DEF) | sensitivity of the switch to ligand [1] | response of EcR to ligand (GAL4CfEcR-DEF [2]) | sensitivity of the switch to ligand [3] | sensitivity of the switch to steroid versus non-steroid ligand (GAL4CfEcR-DEF [4]) | induction [5] | fold induction (GAL4DmEcR-DEF; partner for DmEcR, FIG. 7) | fold induction (GAL4CfEcR-DEF [4]; partner for CfEcR, FIG. 6)
1 | CC(C)CC[C@@H](O)[C@](C)(O)[C@H]1CC[C@@]2(O)C3=CC(=O)[C@@H]4C[C@@H](O)[C@@H](O)C[C@]4(C)[C@H]3CC[C@]12C [PonA, ponasterone A] | more sensitive to PonA than non-steroid | more sensitive to PonA | responded well to non-steroid but not to PonA | more sensitive to PonA | more sensitive to non-steroid than PonA | – | – | –
2 | CCc1c(OC)cccc1C(=O)NN(C(=O)c1cc(C)cc(C)c1)C(C)(C)C [non-steroid, N-(2-ethyl-3-methoxybenzoyl)-N′-(3,5-dimethylbenzoyl)-N′-tert-butylhydrazine] | more sensitive to PonA than non-steroid | less sensitive to non-steroid | responded well to non-steroid but not to PonA | less sensitive to non-steroid | more sensitive to non-steroid than PonA | very little induction | – | –
3 | MmRXRα-LmUSP chimera: chimeric RXR LBD: helices 1-7 of MmRXRα-EF and helices 8-12 of LmUSP-EF (SEQ ID NO: 45), fused to VP16 (protein) MGPKKKRKVAPPTDVSLGDELHLDGEDVAMAHADALDDFDLDMLGDGDSPGPGFTPHDSAPYGALDMADFEFEQMFTDALGIDEYGGEFPANEDMPVEKILEAELAVEPKTETYVEANMGLNPSSPNDPVTNICQAADKQLFTLVEWAKRIPHFSELPLDDQVILLRAGWNELLIASFSHRSIAVKDGILLATGLHVHRNSAHSAGVGAIFDRVLTELVSKMRDMQMDKTELGCLRSVILFNPEVRGLKSAQEVELLREKVYAALEEYTRTTHPDEPGRFAKLLLRLPSLRSIGLKCLEHLFFFRLIGDVPIDTFLMEMLESPSDS | – | – | – | – | – | – | 1759 fold | 11,000 fold
